According to the NIST ThermoML archive (doi:10.1021/je800395m):
“And” between values parts separate entries of the source, which are not always exact repeats. Equal values may be shown once.

Conditions: for Normal melting temperature: DTA

CC(C)CCC[C@@H](C)[C@H]1CC[C@H]2[C@@H]3CC=C4C[C@@H](O)CC[C@]4(C)[C@H]3CC[C@]12C [.DELTA.5-cholesten-3β-ol]
Crystal, Calculated from knudsen effusion weight loss
Conditions | vapor or sublimation pressure [kPa]
386.6 K | 1.18e-05
392 K | 2.13e-05
397.3 K | 3.95e-05
403.1 K | 7.14e-05
408.2 K | 0.0001251
413.8 K | 0.0002146

Conditions | Normal melting temperature [°C]
Crystal | 148

CC(C)[C@@H](C)/C=C/[C@@H](C)[C@H]1CC[C@H]2C3=CC=C4C[C@@H](O)CC[C@]4(C)[C@H]3CC[C@]12C [(22E)-ergosta-5,7,22-trien-3β-ol]
Crystal, Calculated from knudsen effusion weight loss
Conditions | vapor or sublimation pressure [kPa]
381.3 K | 3.1e-06
383.8 K | 4.4e-06
386.5 K | 5.6e-06
394.4 K | 1.42e-05
399.6 K | 2.6e-05
402.3 K | 3.54e-05
404.6 K | 4.47e-05
407.2 K | 5.91e-05
412.3 K | 0.0001027

Conditions | Normal melting temperature [°C]
Crystal | 158

c1ccc2cc3ccccc3cc2c1 [anthracene]
Crystal, Calculated from knudsen effusion weight loss
Conditions | vapor or sublimation pressure
319.6 K | 1.3e-05 kPa and 1.29e-05 kPa
323.9 K | 2.14e-05 kPa
326.8 K | 3.04e-05 kPa
326.9 K | 3e-05 kPa
331.7 K | 5.29e-05 kPa
332.1 K | 5.32e-05 kPa
332.2 K | 5.41e-05 kPa
334 K | 6.51e-05 kPa
334.2 K | 6.59e-05 kPa
337 K | 9.16e-05 kPa
339.4 K | 0.0001131 kPa
342 K | 0.0001487 kPa
349.7 K | 0.0003165 kPa and 0.0003121 kPa
354.8 K | 0.0005077 kPa

CC[C@H](/C=C/[C@@H](C)[C@H]1CC[C@H]2[C@@H]3CC=C4C[C@@H](O)CC[C@]4(C)[C@H]3CC[C@]12C)C(C)C [(22E)-stigmasta-5,22-dien-3β-ol]
Crystal, Calculated from knudsen effusion weight loss
Conditions | vapor or sublimation pressure [kPa]
390.9 K | 3.9e-06
392 K | 4.6e-06
393.5 K | 5.6e-06
396.1 K | 8.2e-06
397.2 K | 9.4e-06
398.7 K | 1.15e-05
401.2 K | 1.61e-05
403.9 K | 2.2e-05
406.3 K | 2.96e-05
408.9 K | 4.11e-05
411.5 K | 5.38e-05
414 K | 7.23e-05
416.6 K | 9.54e-05

Conditions | Normal melting temperature [°C]
Crystal | 162

c1ccc2cc3cc4ccccc4cc3cc2c1 [2,3-benzanthracene]
Crystal 2
Conditions | vapor or sublimation pressure [kPa]
399 K | 1.46e-05
404.4 K | 2.1e-05
405.6 K | 2.55e-05
409.5 K | 3.39e-05
410.6 K | 4.22e-05
414.6 K | 5.42e-05
415.8 K | 6.67e-05
416.6 K | 6.39e-05
418.6 K | 7.84e-05
419.6 K | 8.46e-05
420.8 K | 0.0001032
424.7 K | 0.0001278
430.1 K | 0.0002146

CC[C@H](CC[C@@H](C)[C@H]1CC[C@H]2[C@@H]3CC=C4C[C@@H](O)CC[C@]4(C)[C@H]3CC[C@]12C)C(C)C [β-sitosterol]
Crystal, Calculated from knudsen effusion weight loss
Conditions | vapor or sublimation pressure [kPa]
389.9 K | 9.4e-06
392.4 K | 1.27e-05
395.2 K | 1.72e-05
397.7 K | 2.23e-05
400.3 K | 2.99e-05
405.6 K | 5.2e-05
410.7 K | 9.02e-05

Conditions | Normal melting temperature [°C]
Crystal | 138
